# Data reported in paper PMC6198970, “Safety, efficacy, and dose response of the maturation inhibitor GSK3532795 (formerly known as BMS-955176) plus tenofovir/emtricitabine once daily in treatment-naive HIV-1-infected adults: Week 24 primary analysis from a randomized Phase IIb trial” (PLoS ONE, 2018).
# pEC50, pIC50: −log10 of the molar value. Read-outs that look alike come from different tables or passages of the source.
# Legend:
# [1] = tested on: HIV-1; experiment: Protocol-defined virologic failure and drug resistance testing (GenoSure MG, PhenoSense); assay type: in vivo, HIV-1-infected adults; conditions: through Week 24
# Excerpt: PDVF was defined as either: (1) confirmed HIV-1 RNA ≥40 copies/mL at any time after prior confirmed suppression to <40 copies/mL; or (2) a confirmed >1 log10 copies/mL above the nadir level. Genotypic information required for screening was generated using the GenoSure® MG assay; genotypic information and phenotypic observations during the treatment period were generated using the PhenoSense® combination resistance test.
# [2] = tested on: CD4+ T-cell count; experiment: Change from baseline in CD4+ T-cell count; assay type: in vivo, HIV-1-infected adults; conditions: Week 24
# Excerpt: The primary endpoint was determination of the proportion of participants with plasma HIV-1 RNA <40 copies/mL at Week 24 after treatment with GSK3532795 or efavirenz (EFV). Secondary endpoints included mean changes from baseline in CD4+ T-cell count and mean changes in the percentage of CD4+ T-cell count over time. Secondary safety endpoints included frequency of adverse events (AEs), serious AEs (SAEs), and AEs leading to discontinuation through Week 24. Further secondary endpoints included emergence of drug resistance. Exploratory endpoints included assessment of the impact of Gag polymorphisms on the efficacy of GSK3532795. […] In addition, though Gag A364 is essentially invariant across genotypes, it was included in the primary endpoint analysis since emergent resistance to GSK3532795 (both in vitro and in Phase IIa studies) mapped, in part, to the A364V change. Thus, our analysis at the Week 24 primary endpoint was limited to these four positions. Pharmacokinetic (PK) analyses were performed to evaluate treatment exposure and assess the dose proportionality of GSK3532795 when co-administered with tenofovir disoproxil fumarate (TDF)/emtricitabine (FTC).
# [3] = cited from earlier work
# [4] = tested on: P gp, NTCP, OAT1, OAT3, MRP2, BSEP; parameters: method as in protocol Section 1.4.1.2; conditions: ref protocol Section 1.4.1.2; cited from earlier work
# [5] = cited from earlier work; remark: listed apart in the source
# [6] = Adverse events through Week 24; assay type: in vivo, HIV-1-infected adults
# Protocol: Physical examinations, measurement of vital signs, and clinical laboratory evaluations were performed at Weeks 4, 8, 12, 16 and 24, and participants were closely monitored for AEs and SAEs throughout. AEs were classified according to MedDRA version 19.0. The severity and relationship to study drug was assessed by the local investigator.
# [7] = tested on: OATP1B3; parameters: method as in protocol Section 1.4.1.2; conditions: ref protocol Section 1.4.1.2; cited from earlier work
# [8] = parameters: method as in protocol Section 1.4.1.2; conditions: local lymph node assay in the mouse; ref protocol Section 1.4.1.2; cited from earlier work
# [9] = tested on: HIV-1 clinical isolates; conditions: cited from earlier work
# [10] = tested on: HIV-1; conditions: ref AI468002, cited from earlier work
# [11] = parameters: method as in protocol Section 1.4.1.2; conditions: 80 mg/kg/day, ref protocol Section 1.4.1.2, cited from earlier work
# [12] = tested on: cytochrome P450 (CYP)3A4; parameters: method as in protocol Section 1.4.1.2; conditions: ref protocol Section 1.4.1.2; cited from earlier work
# [13] = Intensive PK, non-compartmental analysis and dose proportionality; assay type: in vivo, HIV-1-infected adults
# Protocol: Due to the EFV component of the blinded drug regimens, administration of study drug required both morning and evening dosing,12 hours apart. […] All bioanalytical analyses were conducted by PPD® Laboratories using validated high-performance liquid chromatography/mass spectroscopy assays. Intensive plasma GSK3532795 concentrations were analyzed by non-compartmental analysis using the actual sampling times in WinNonlin version 6.3.0 (Pharsight, St. Louis, Missouri, USA). […] To assess the dose proportionality of GSK3532795 when co-administered with TDF/FTC, a mixed-effect model with log-transformed dose as the fixed effect and each participant as the random effect was used to fit a power model in SAS version 9.1.3.
# [14] = target: broad range of enzymes, transporters, and receptors, including cardiac ion channels; parameters: method as in protocol Section 1.4.1.2; conditions: ref protocol Section 1.4.1.2; read-out: IC50 or EC50 for in vitro off-target interactions; cited from earlier work
# [15] = parameters: method as in protocol Section 1.4.1.2; conditions: ref protocol Section 1.4.1.2; cited from earlier work
# [16] = 30 mg/kg/day, ref protocol Section 1.4.1.2
# [17] = GSK3532795: range across 60, 120, 180 mg arms, EFV 600 mg
# [18] = GSK3532795 arms pooled, EFV 600 mg, abstract
# [19] = Part A, clade B, 10 days monotherapy, 5 mg
structure (smiles),measurement,setting,value
C=C(C)[C@@H]1CC[C@]2(NCCN3CCS(=O)(=O)CC3)CC[C@]3(C)[C@H](CC[C@@H]4[C@@]5(C)CC=C(c6ccc(C(=O)O)cc6)C(C)(C)[C@@H]5CC[C@]43C)[C@@H]12 [GSK3532795],Rate of protocol-defined virologic failure (PDVF),[1]; 60 mg arm,12% (6/50)
same,Rate of protocol-defined virologic failure (PDVF),[1]; 120 mg arm,10% (5/52)
same,Rate of protocol-defined virologic failure (PDVF),[1]; 180 mg arm,6% (3/51)
same,Mean change in CD4+ T-cell count (SD),[2]; 60 mg,94.3 (SD 175.00) cells/μL
same,Mean change in CD4+ T-cell count (SD),[2]; 120 mg,79.7 (SD 199.46) cells/μL
same,Mean change in CD4+ T-cell count (SD),[2]; 180 mg,92.5 (SD 144.04) cells/μL
same,AUC at NOAEL,[3]; [16],1.135e+08 µg·h/mL
same,"ALT activity not recovered, fold","[3]; 100 mg/kg/day, 1 male, end of 2-week recovery, ref protocol Section 1.4.1.2",1.94 x
same,AUC at dose with dose-limiting toxicity,"[3]; 100 mg/kg/day, ref protocol Section 1.4.1.2",357 g·h/mL
same,Finding at high dose,"[3]; 300 mg/kg/day, Days 8 to 9, ref protocol Section 1.4.1.2",early euthanasia of all the rats
same,NOAEL,"[3]; rat, in vivo",30 mg/kg/day
same,"Inhibition of P gp, NTCP, OAT1, OAT3, MRP2, and BSEP",[4],not an inhibitor
same,AUC at developmental NOAEL,[5]; [16],114 gh/mL
same,Developmental NOAEL,"[5]; rat, in vivo",30 mg/kg/day
same,Developmental toxicity classification,"[5]; rats, ref protocol Section 1.4.1.2",not a selective developmental toxicant
same,Mean time to onset of first diarrhea event,[6]; 60 mg arm,48.4 days
same,Mean time to onset of first diarrhea event,[6]; 120 mg arm,19.9 days
same,Mean duration of first diarrhea event,[6]; 120 mg arm (longest),104.2 days
same,Mean time to onset of first diarrhea event,[6]; 180 mg arm,11.3 days
same,SAE considered related to study drug,"[6]; GSK3532795 120 mg (no action taken), EFV (led to discontinuation)",Grade 3 abdominal pain
same,Grade 1–4-related abdominal pain,[6]; [17],6–16%
same,Grade 1–4-related diarrhea,[6]; [17],27–51%
same,Adverse events leading to discontinuation,[6]; [18],5%
same,Serious adverse events,[6]; [18],5%
same,Frequency of Grade 1–4-related AEs,"[6]; GSK3532795 arms pooled, EFV 600 mg, through Week 24",53%
same,pIC50,[7],5.40
same,Skin sensitization,[8],not a skin sensitizer
same,pEC50,"[9]; PBMCs, CRF01_AE subtype, N = 7, ref protocol Section 1.4.1.2",7.11
same,"Fold less susceptible, CRF01_AE (clade AE) compared to clade B","[9]; in vitro, ref protocol Section 1.4.1",2-3 fold
same,"Maximum decline log10 HIV-1 RNA, max","[10]; Part A, 10 mg",-1.76 Log10
same,"Maximum decline log10 HIV-1 RNA, mean","[10]; Part A, 10 mg",-1.05 Log10
same,"Maximum decline log10 HIV-1 RNA, median","[10]; Part A, 10 mg",-0.976 Log10
same,"Maximum decline log10 HIV-1 RNA, min","[10]; Part A, 10 mg",-0.64 Log10
same,"Maximum decline log10 HIV-1 RNA, max","[10]; Part A, 20 mg",-2.12 Log10
same,"Maximum decline log10 HIV-1 RNA, mean","[10]; Part A, 20 mg",-1.17 Log10
same,"Maximum decline log10 HIV-1 RNA, median","[10]; Part A, 20 mg",-1.115 Log10
same,"Maximum decline log10 HIV-1 RNA, min","[10]; Part A, 20 mg",-0.13 Log10
same,"Maximum decline log10 HIV-1 RNA, max","[10]; Part A, 40 mg",-1.88 Log10
same,"Maximum decline log10 HIV-1 RNA, mean","[10]; Part A, 40 mg",-1.55 Log10
same,"Maximum decline log10 HIV-1 RNA, median","[10]; Part A, 40 mg",-1.701 Log10
same,"Maximum decline log10 HIV-1 RNA, min","[10]; Part A, 40 mg",-0.93 Log10
same,"Maximum decline log10 HIV-1 RNA, max","[10]; Part A, 80 mg",-1.82 Log10
same,"Maximum decline log10 HIV-1 RNA, mean","[10]; Part A, 80 mg",-1.52 Log10
same,"Maximum decline log10 HIV-1 RNA, median","[10]; Part A, 80 mg",-1.555 Log10
same,"Maximum decline log10 HIV-1 RNA, min","[10]; Part A, 80 mg",-1.04 Log10
same,"Maximum decline log10 HIV-1 RNA, max","[10]; Part A, 120 mg",-2.07 Log10
same,"Maximum decline log10 HIV-1 RNA, mean","[10]; Part A, 120 mg",-1.53 Log10
same,"Maximum decline log10 HIV-1 RNA, median","[10]; Part A, 120 mg",-1.654 Log10
same,"Maximum decline log10 HIV-1 RNA, min","[10]; Part A, 120 mg",-0.83 Log10
same,"Maximum decline log10 HIV-1 RNA, max",[10]; [19],-0.78 Log10
same,"Maximum decline log10 HIV-1 RNA, mean",[10]; [19],-0.49 Log10
same,"Maximum decline log10 HIV-1 RNA, median",[10]; [19],-0.498 Log10
same,"Maximum decline log10 HIV-1 RNA, min",[10]; [19],-0.22 Log10
same,"Maximum decline log10 HIV-1 RNA, max","[10]; Part C, clade C, 40 mg",-2.03 Log10
same,"Maximum decline log10 HIV-1 RNA, median","[10]; Part C, clade C, 40 mg",-1.285 Log10
same,"Maximum decline log10 HIV-1 RNA, min","[10]; Part C, clade C, 40 mg",-1.04 Log10
same,"Maximum decline log10 HIV-1 RNA, mean","[10]; Part C, clade C, 10 days monotherapy, 40 mg",-1.5 Log10
same,Safety in Phase 2a,"[10]; alone or with ATV ± RTV for 10-28 days, preliminary","no deaths, SAEs, or AEs leading to discontinuation"
same,Median maximal reductions in HIV-1 RNA,"[10]; doses 40 mg SDD once daily and above, clade B and clade C",> 1 log10
same,AUC,[11],3.26 gh/mL
same,Developmental toxicity classification,[11]; rabbits,not a developmental toxicant
same,Metabolism in human in vitro systems,[12],primarily mediated via cytochrome P450 (CYP)3A4
same,Increase in systemic exposure with dose,"[13]; dose range 60–180 mg, with food and TDF/FTC",less than dose-proportional
same,Time at which median steady-state plasma concentrations reached peak,"[13]; multiple doses 60, 120 or 180 mg with food and TDF/FTC",4–5 hours post-dose
same,pIC50,[14],< 5.30
same,"Phototoxicity, mutagenicity, clastogenicity in vitro",[15],"not phototoxic, mutagenic, or clastogenic"
